Assay results: PMC7871333 (Science translational medicine, 2020)

Assays:
[1] = in vivo
[2] = rats; cited from earlier work

| Compound | Caffeine pharmacokinetic parameters sampled in plasma or ISF [1] | Concentration in ISF compared to serum [2] |
| --- | --- | --- |
| Cn1c(=O)c2c(ncn2C)n(C)c1=O [caffeine] | not significantly different | – |
| CC/N=c1\cc2oc3cc(NCC)c(C)cc3c(-c3ccccc3C(=O)OCC)c-2cc1C [rhodamine 6G] | – | lower than in serum |
